The target of series [1] is pepsin (Sus scrofa, UniProt P00791). Description: Pepsin-inhibitory activity (method of Murao and Satoi). In kind it is biochemical. The method, then:
viii. Pepsin-inhibitory activity: Pepsin-inhibitory activity of DA-pepsidine was determined using the method reported by S. Murao and S. Satoi in Agr. Biol. Chem. Japan 34 (8) 1265 - 7 (1970). […] While, that of pepsidine C is 0.86 μg.

Series [2] is described as follows: Solubility in solvents. In kind it is physicochemical.

Chain of pepsin (P00791 60-385): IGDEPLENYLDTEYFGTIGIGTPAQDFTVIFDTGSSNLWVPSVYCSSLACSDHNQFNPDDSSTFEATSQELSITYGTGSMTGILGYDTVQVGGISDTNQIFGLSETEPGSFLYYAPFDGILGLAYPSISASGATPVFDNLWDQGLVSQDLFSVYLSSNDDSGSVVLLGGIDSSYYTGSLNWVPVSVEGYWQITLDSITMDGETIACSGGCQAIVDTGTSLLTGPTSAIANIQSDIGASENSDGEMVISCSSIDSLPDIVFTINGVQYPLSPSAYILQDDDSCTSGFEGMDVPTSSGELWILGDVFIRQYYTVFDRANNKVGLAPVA

`CC(C)CC(NC(=O)[C@H](C)NC(=O)CC(O)C(CC(C)C)NC(=O)[C@@H](NC(=O)[C@@H](N)C(C)C)C(C)C)C(O)CC(=O)O` (some centres unmarked) [DA-pepsidine, valyl-valyl-4-amino-3-hydroxy-6-methyl-heptanoyl alanyl-4-amino-3-hydroxy-6-methyl-heptanoic acid]: the “amount which gives 50% inhibition against 100 μg of pepsin” value in series [1] was 0.82 µg. The Solubility result is reported as “Easily soluble” in series [2] (in acetic acid and methanol); “slightly soluble” in series [2] (in acetone and ethylether); “soluble” in series [2] (in ethanol, n-butanol and pyridine).

`CC(=O)N[C@H](C(=O)N[C@H](C(=O)NC(CC(C)C)C(O)CC(=O)N[C@@H](C)C(=O)NC(CC(C)C)C(O)CC(=O)O)C(C)C)C(C)C` (some centres unmarked) [pepsidine C, reference compound]: the “amount which gives 50% inhibition against 100 μg of pepsin” value in series [1] turned out to be 0.86 µg.

(Values after patent US4050989A, “Process of preparing desacyl-pepsidine with bacillus pumilus” (Eisai Co., Ltd., priority 1974, dated 1977).)
